Some test systems named below: OVCAR-5; SF-295; U-251; A498; UO-31; M14; A549; IGROV-1; HCC 2998; SN12C; PC-3; DU-145; SK-MEL-2; HL-60; TK-10; SF-268; K562; SK-OV-3.
What all share (assay): NCI-60 cell line screen, 48 h

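Dose response: 5 concentrations. Exposure: 48 h. Format: 96-well plates. Endpoint: linear interpolation; highest concentration if not reached. The concentration for 50% growth inhibition is given as GI50.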 Calls of active or inactive are those of the source. Cut-off read from the data, not from the text of the source: active = GI50 up to about 1.1 µM and inactive = higher. Where only a bound is given, the exact number is not on record here.

As to `O=[N+]([O-])/C(C(Cl)=C(Cl)Cl)=C(/Sc1ccccc1)N1CCCCC1`, the GI50 in the experiment with OVCAR-5 is > 100 µM (inactive); in the experiment on SF-295, 43.1 µM (inactive); in the experiment with U-251 it was > 100 µM (inactive); in the experiment on A498, > 61.9 µM (inactive); in the experiment on UO-31 it was > 61.5 µM (inactive); in the experiment on M14, > 69.2 µM (inactive). Also, the GI50 in the experiment on A549 was > 93.5 µM (inactive); in the experiment on IGROV-1, 16.5 µM (inactive); in the experiment on HCC 2998, > 100 µM (inactive); in the experiment on SN12C, > 100 µM (inactive); in the experiment with PC-3, > 75.9 µM (inactive); with DU-145, > 53.2 µM (inactive). The GI50 with SK-MEL-2 is 2.44 µM (inactive); in the experiment on HL-60, 2.24 µM (inactive); in the experiment on TK-10 it was > 100 µM (inactive); in the experiment on SF-268, > 45.6 µM (inactive); in the experiment on K562 it was 23.9 µM (inactive); in the experiment on SK-OV-3 it was 34.1 µM (inactive).
For `CC(=O)c1sc2c(c1OC(=O)c1ccc(Cl)cc1)c(=O)n(-c1ccccc1)c(=S)n2-c1ccccc1`, the GI50 in the experiment with OVCAR-5 is 2.77 µM (inactive); in the experiment with SF-295, 0.953 µM (active); in the experiment with U-251, 2.82 µM (inactive); in the experiment with A498 it was 1.08 µM (active); with UO-31 it was 3.06 µM (inactive); in the experiment with M14, 1.18 µM (inactive). Besides, the GI50 in the experiment on A549 is 25.4 µM (inactive); in the experiment with IGROV-1, 8.89 µM (inactive); in the experiment with HCC 2998 it was 19.1 µM (inactive); in the experiment on SN12C it was 2.06 µM (inactive); with PC-3, 3.56 µM (inactive); in the experiment on DU-145, 25.9 µM (inactive). The GI50 was 1.27 µM (inactive) with SK-MEL-2; 9.23 µM (inactive) in the experiment with HL-60; 22.4 µM (inactive) with TK-10; 4.56 µM (inactive) with SF-268; 9.04 µM (inactive) with K562; 1.21 µM (inactive) in the experiment on SK-OV-3.
For `CCN1C(=O)CS/C1=N\NC(=O)CSc1nc2ccccc2c(=O)n1CC`, the GI50 in the experiment on OVCAR-5, with SF-295, in the experiment with U-251, in the experiment on A498, in the experiment on UO-31 and in the experiment on M14 was > 100 µM (inactive) throughout. The GI50 in the experiment on A549, in the experiment with IGROV-1, in the experiment on HCC 2998, in the experiment on SN12C, with PC-3 and in the experiment with DU-145 was > 100 µM (inactive) each time. Also, the GI50 was > 100 µM (inactive) in the experiment with SK-MEL-2; 96.4 µM (inactive) in the experiment on HL-60; > 100 µM (inactive) in the experiment on TK-10; > 100 µM (inactive) with SF-268; > 100 µM (inactive) with K562; > 100 µM (inactive) with SK-OV-3.
As to `CC1=CC[C@@]2(C)[C@@H]([C@@H]1C)[C@H]1CC[C@@H]3[C@@]4(C)CC[C@H](O)C(C)(C)[C@@H]4CC[C@@]3(C)[C@]1(C)C[C@@H]2O`, the GI50 in the experiment on OVCAR-5 was > 50.8 µM (inactive); in the experiment on SF-295, 13.2 µM (inactive); in the experiment with U-251, 7.94 µM (inactive); with A498, > 20.7 µM (inactive); with UO-31, > 100 µM (inactive); with M14, 6.52 µM (inactive). Also, the GI50 in the experiment on A549 is 12.6 µM (inactive); with IGROV-1 it was 17.1 µM (inactive); in the experiment on HCC 2998, 17.7 µM (inactive); with SN12C, 6.61 µM (inactive); in the experiment on PC-3, 18.6 µM (inactive); with DU-145, 8 µM (inactive). Besides, the GI50 in the experiment on SK-MEL-2 was 24.8 µM (inactive); in the experiment with HL-60, 50.1 µM (inactive); in the experiment with TK-10, > 39.5 µM (inactive); in the experiment with SF-268, 9.79 µM (inactive); in the experiment on K562 it was 4.2 µM (inactive); in the experiment on SK-OV-3 it was > 44.7 µM (inactive).
In the case of `COc1ccc(C2OC(c3ccncc3)=NN2C)cc1F` (stereo not drawn), the GI50 with OVCAR-5, in the experiment with SF-295, with U-251, in the experiment with A498, in the experiment on UO-31 and with M14 was > 100 µM (inactive) each time. Also, the GI50 with A549, in the experiment on IGROV-1, in the experiment with HCC 2998, in the experiment with SN12C, in the experiment on PC-3 and in the experiment on DU-145 was > 100 µM (inactive) in each case. Also, the GI50 with SK-MEL-2, in the experiment on HL-60, with TK-10, in the experiment on SF-268, with K562 and with SK-OV-3 was > 100 µM (inactive) each time.
With `COC1(OC)c2occc2C(=N)c2ccc(=O)oc21`, the GI50 with OVCAR-5, in the experiment on SF-295, in the experiment with U-251, in the experiment with A498, in the experiment with UO-31 and in the experiment on M14 was > 100 µM (inactive) throughout. Also, the GI50 in the experiment on A549, in the experiment on IGROV-1, in the experiment on HCC 2998, in the experiment with SN12C, with PC-3 and in the experiment on DU-145 was > 100 µM (inactive) in each case. The GI50 was > 100 µM (inactive) in the experiment on SK-MEL-2; 45.8 µM (inactive) in the experiment with HL-60; > 100 µM (inactive) with TK-10; > 100 µM (inactive) in the experiment with SF-268; > 100 µM (inactive) in the experiment on K562; > 100 µM (inactive) in the experiment with SK-OV-3.
In the case of `CC(=O)O[C@H]1CC[C@@]2(C)C(=CC[C@H]3[C@@H]4C[C@H](N5CCCC5)[C@H](OC(C)=O)[C@@]4(C)CC[C@@H]32)C1`, the GI50 in the experiment with OVCAR-5 was > 100 µM (inactive); in the experiment with SF-295 it was > 100 µM (inactive); with U-251, > 100 µM (inactive); in the experiment on A498 it was > 100 µM (inactive); in the experiment with UO-31, > 100 µM (inactive); in the experiment on M14 it was 18.2 µM (inactive). The GI50 with A549 is > 100 µM (inactive); in the experiment with IGROV-1, > 100 µM (inactive); in the experiment on HCC 2998, > 93.3 µM (inactive); in the experiment with SN12C, > 100 µM (inactive); in the experiment on PC-3 it was > 100 µM (inactive); with DU-145 it was > 100 µM (inactive). Further, the GI50 with SK-MEL-2 was > 100 µM (inactive); in the experiment with HL-60, > 45.7 µM (inactive); in the experiment with TK-10, > 100 µM (inactive); with SF-268 it was > 100 µM (inactive); with K562, 33.1 µM (inactive); in the experiment with SK-OV-3, > 100 µM (inactive).
For `CC1=CC(C)C(C)N(CCNS(=O)(=O)c2ccc(C)cc2)c2ccccc21` (stereo not drawn), the GI50 in the experiment with OVCAR-5 was 18.7 µM (inactive); with SF-295, 13.8 µM (inactive); in the experiment with U-251, 16.5 µM (inactive); with A498, 14.6 µM (inactive); with UO-31, 16.5 µM (inactive); in the experiment with M14, 12.3 µM (inactive). For the same compound, the GI50 in the experiment with A549 is 19.4 µM (inactive); with IGROV-1, 17 µM (inactive); in the experiment on HCC 2998 it was 16.4 µM (inactive); in the experiment with SN12C it was 12.6 µM (inactive); in the experiment with PC-3, 12.5 µM (inactive); in the experiment with DU-145, 11.1 µM (inactive). In addition, the GI50 is 12 µM (inactive) with SK-MEL-2; 14 µM (inactive) in the experiment with HL-60; 30.5 µM (inactive) in the experiment on TK-10; 13 µM (inactive) in the experiment with SF-268; 14.7 µM (inactive) with K562; 29.6 µM (inactive) in the experiment on SK-OV-3.
On to `COC(=O)c1cc(C)ccc1C1CN=NC12Cc1ccc(C)cc1C2=O` (stereo not drawn), for which the GI50 in the experiment on OVCAR-5 was > 100 µM (inactive); in the experiment on SF-295, 38 µM (inactive); in the experiment on U-251, 44.7 µM (inactive); in the experiment with A498, 29.5 µM (inactive); with UO-31 it was 27.7 µM (inactive); in the experiment with M14 it was 38.3 µM (inactive). The GI50 in the experiment with A549 is 29.8 µM (inactive); in the experiment with IGROV-1, 63.4 µM (inactive); in the experiment with HCC 2998, 31.4 µM (inactive); in the experiment with SN12C, 44.9 µM (inactive); with PC-3, 32.4 µM (inactive); in the experiment on DU-145, 82.8 µM (inactive). In addition, the GI50 in the experiment with SK-MEL-2 is 57.9 µM (inactive); with HL-60, 13 µM (inactive); in the experiment with TK-10, 61 µM (inactive); with SF-268 it was 32.7 µM (inactive); with K562, 19.4 µM (inactive); in the experiment with SK-OV-3 it was 38.1 µM (inactive).
In the case of `COC(=O)[C@@H]1C[C@@H](O)CN1C(=O)c1ccc([N+](=O)[O-])cc1[N+](=O)[O-]`, the GI50 in the experiment with OVCAR-5, in the experiment on SF-295, in the experiment with U-251, with A498, with UO-31 and in the experiment on M14 was > 100 µM (inactive) each time. Further, the GI50 in the experiment on A549, in the experiment on IGROV-1, in the experiment with HCC 2998, in the experiment on SN12C, in the experiment with PC-3 and in the experiment on DU-145 was > 100 µM (inactive) each time. For the same compound, the GI50 in the experiment on SK-MEL-2, with HL-60, in the experiment with TK-10, in the experiment with SF-268, in the experiment on K562 and in the experiment on SK-OV-3 was > 100 µM (inactive) each time.
`COC(=O)[C@@H]1COC(C(C)(C)C)N1C(=O)C(c1ccccc1)c1ccccc1` (stereo partly drawn): the GI50 in the experiment with OVCAR-5 is > 100 µM (inactive); in the experiment on SF-295, 60.1 µM (inactive); in the experiment with U-251, 42 µM (inactive); with A498, > 100 µM (inactive); in the experiment on UO-31, 52.5 µM (inactive); in the experiment with M14, 52 µM (inactive). The GI50 is 65.8 µM (inactive) in the experiment on A549; 73.1 µM (inactive) with IGROV-1; 48.3 µM (inactive) with HCC 2998; 32.1 µM (inactive) in the experiment with SN12C; 24.8 µM (inactive) in the experiment with PC-3; > 100 µM (inactive) with DU-145. The GI50 was 90.2 µM (inactive) in the experiment on SK-MEL-2; 45.3 µM (inactive) in the experiment with HL-60; 50.4 µM (inactive) with TK-10; > 100 µM (inactive) in the experiment on SF-268; 19.5 µM (inactive) in the experiment on K562; 31.4 µM (inactive) in the experiment with SK-OV-3.

For the origin of these results see ChEMBL document CHEMBL1201862, “PubChem BioAssay data set” (2004).
